From patent US7939657B2, “N-substituted benzene sulfonamides” (Elan Pharmaceuticals, Inc., priority 2003, dated 2011)

Each molecule was assayed on gamma secretase cleavage of NotchΔE (constitutively active rat Notch1 construct ZEDN1) (assay: Notch signaling assay for selective inhibitors of gamma secretase (4xwtCBF1 Luciferase reporter gene co-transfected with NotchΔE ZEDN1)). Conditions: 'the above assay' (reporter gene based Notch signaling assay), ranges stated as 'from about'.
Type: cell-based
Excerpt: “A presenilin-1-dependent gamma-secretase-like protease mediates release of Notch intracellular domain.” Nature 398(6727): 518-22; Mumm, J. S., E. H. Schroeter, M. T. Saxena, A. Griesemer, X. Tian, D. J. Pan, W. J. Ray and R. Kopan (2000). “A ligand-induced extracellular cleavage regulates gamma-secretase-like proteolytic activation of Notch1.” Mol Cell 5(2): 197-206; Zhang, Z., P. Nadeau, W. Song, D. Donoviel, M. Yuan, A. Bernstein and B. A. Yankner (2000). “Presenilins are required for gamma-secretase cleavage of beta-APP and transmembrane cleavage of Notch-1.” Nat Cell Biol 2(7): 463-5). Cleavage of APP by gamma secretase leads to β-amyloid synthesis. Cleavage of Notch1 by gamma secretase results in release of the Notch intracellular domain (NICD), which translocates to the nucleus and activates gene expression (Jarriault, S., C. Brou, F. Logeat, E. H. Schroeter, R. Kopan and A. Israel (1995). “Signalling downstream of activated mammalian Notch.” Nature 377(6547): 355-8; Kopan, R., E. H. Schroeter, H. Weintraub and J. S. Nye (1996). “Signal transduction by activated Notch: importance of proteolytic processing and its regulation by the extracellular domain.” Proc Natl Acad Sci USA 93(4): 1683-8; Schroeter, E. H., J. A. Kisslinger and R. Kopan (1998). “Notch-1 signalling requires ligand-induced proteolytic release of intracellular domain.” Nature 393(6683): 382-6). In particular, Notch signaling activates transcription of the mammalian homolog of the Drosophila transcription factor hairy-enhancer of split (Hes). Transcriptional activation of Hes1 is mediated by de-repression of CBF1/RBPJk upon binding by NICD in the nucleus. These facts have been exploited to develop a reporter gene assay for Notch Signaling Hsieh, J. J., T. Henkel, P. Salmon, E. Robey, M. G. Peterson and S. D. Hayward (1996). “Truncated mammalian Notch1 activates CBF1/RBPJk-repressed genes by a mechanism resembling that of Epstein-Barr virus EBNA2.” Mol Cell Biol 16(3): 952-9; Lu, F. M. and S. E. Lux (1996). “Constitutively active human Notch1 binds to the transcription factor CBF1 and stimulates transcription through a promoter containing a CBF1-responsive element.” Proc Natl Acad Sci USA 93(11): 5663-7).
Due to the importance of Notch signaling in cell fate determination, and tissue differentiation during both development and in the adult, inhibition of Notch signaling by gamma secretase inhibitors is postulated to be a limiting factor in their therapeutic utility. […] “Notch signaling inhibits muscle cell differentiation through a CBF1-independent pathway.” Development 122(12): 3765-73 in combination with the CBF1 repressible Luciferase reporter gene 4xwtCBF1Luc (Hsieh, J. J., et al., (1996). Mol Cell Biol 16(3): 952-9).
When 4xwtCBF1 Luciferase is co-transfected with NotchΔE (ZEDN1), γ-secretase cleavage of NotchΔE releases the Notch intracellular domain (NICD), which translocates to the nucleus and de-represses CBF1mediated transcriptional repression, leading to transcription of the Luciferase reporter gene. Luciferase activity is easily assayed in cell extracts using commercially available kits. The activity of the reporter gene is directly correlated with gamma secretase cleavage of NotchΔE, and as such, a reduction in Luciferase activity provides a convenient measure of inhibition of gamma secretase cleavage of NotchΔE.

Row | SMILES | IC50 [nM]
1 | C=C(CC)CN(C1CCCCNC1=O)S(=O)(=O)c1ccc(Cl)cc1 (stereo not drawn) [Compound 66, 4-Chloro-N-(2-ethyl-allyl)-N-(2-oxo-azepan-3-yl)-benzenesulfonamide] | 100 to 1000
2 | O=C1NCCCC[C@H]1N(CCCOCc1ccccc1)S(=O)(=O)c1ccc(Cl)cc1 [Compound 89, N-[3-(benzyloxy)propyl]-4-chloro-N-[(3R)-2-oxoazepan-3-yl]benzenesulfonamide] | > 1000
3 | O=C1c2ccccc2C(=O)C1CCCCN([C@@H]1CCCCNC1=O)S(=O)(=O)c1ccc(Cl)cc1 [Compound 108, 4-chloro-N-[4-(1,3-dioxo-2,3-dihydro-1H-inden-2-yl)butyl]-N-[(3R)-2-oxoazepan-3-yl]benzenesulfonamide] | 100 to 1000
4 | O=C1NCCCCC1N(Cc1ccc(Br)s1)S(=O)(=O)c1ccc(Cl)cc1 (stereo not drawn) [Compound 160, N-(5-Bromo-thiophen-2-ylmethyl)-4-chloro-N-(2-oxo-azepan-3-yl)-benzenesulfonamide] | 100 to 1000
5 | O=C1NCCCC[C@H]1N(Cc1ccc2ccccc2c1)S(=O)(=O)c1ccc(Cl)cc1 [Compound 227, 4-chloro-N-(2-naphthylmethyl)-N-[(3R)-2-oxoazepan-3-yl]benzenesulfonamide] | 25 to 100
6 | CSc1ccc(CN(C2CCCCNC2=O)S(=O)(=O)c2ccc(Cl)cc2)cc1 (stereo not drawn) [Compound 269, 4-Chloro-N-(4-methylsulfanyl-benzyl)-N-(2-oxo-azepan-3-yl)-benzenesulfonamide] | 0.1 to 25
7 | NC(=O)CN(C1CCCCNC1=O)S(=O)(=O)c1ccc(Cl)cc1 (stereo not drawn) [Compound 338, 2-[(4-Chloro-benzenesulfonyl)-(2-oxo-azepan-3-yl)-amino]-acetamide] | > 1000
8 | CC(C)CNC(=O)c1ccc(CN([C@@H]2CCCCNC2=O)S(=O)(=O)c2ccc(Cl)cc2)cc1 [Compound 486, 4-({[(4-chlorophenyl)sulfonyl][(3R)-2-oxoazepan-3-yl]amino}methyl)-N-isobutylbenzamide] | 25 to 100
9 | O=C(NCc1cccnc1)c1ccc(CN([C@@H]2CCCCNC2=O)S(=O)(=O)c2ccc(Cl)cc2)cc1 [Compound 593, 4-({[(4-chlorophenyl)sulfonyl][(3R)-2-oxoazepan-3-yl]amino}methyl)-N-(pyridin-3-ylmethyl)benzamide] | 0.1 to 25
10 | CCN(C(=O)c1ccc(CN([C@@H]2CCCCNC2=O)S(=O)(=O)c2ccc(Cl)cc2)cc1)C1CCCCC1 [Compound 609, 4-({[(4-chlorophenyl)sulfonyl][(3R)-2-oxoazepan-3-yl]amino}methyl)-N-cyclohexyl-N-ethylbenzamide] | 100 to 1000
11 | CC(NC(=O)c1ccc(CN([C@@H]2CCCCNC2=O)S(=O)(=O)c2ccc(Cl)cc2)cc1)c1cccnc1 (stereo partly drawn) [Compound 636, 4-({[(4-chlorophenyl)sulfonyl][(3R)-2-oxoazepan-3-yl]amino}methyl)-N-(1-pyridin-3-ylethyl)benzamide] | 25 to 100
12 | O=C1NCCCC[C@H]1N(Cc1ccc(-c2nnn[nH]2)cc1)S(=O)(=O)c1ccc(Cl)cc1 [Compound 663] | 25 to 100
13 | O=C1NCCCC[C@H]1N(Cc1ccc(-c2nnc(-c3ccccc3)o2)cc1)S(=O)(=O)c1ccc(Cl)cc1 [Compound 672] | > 1000

The remaining lines, values ahead:

Row | IC50 [nM] | SMILES
14 | > 1000 | COc1ccc(CN(C2CCCCNC2=O)S(=O)(=O)c2ccc(C(C)(C)C)cc2)cc1OC (stereo not drawn) [Compound 14, 4-tert-Butyl-N-(3,4-dimethoxy-benzyl)-N-(2-oxo-azepan-3-yl)-benzenesulfonamide]
15 | 0.1 to 25 | O=C1NCCCC[C@H]1N(Cc1ccc2c(c1)OCCO2)S(=O)(=O)c1ccc(Cl)cc1 [Compound 77, 4-chloro-N-(2,3-dihydro-1,4-benzodioxin-6-ylmethyl)-N-[(3R)-2-oxoazepan-3-yl]benzenesulfonamide]
16 | > 1000 | O=C1NCC[C@H]1N(Cc1ccc(F)cc1F)S(=O)(=O)c1ccc(Cl)cc1 [Compound 148, 4-chloro-N-(2,4-difluorobenzyl)-N-[(3R)-2-oxopyrrolidin-3-yl]benzenesulfonamide]
17 | > 1000 | O=C1NCCCCC1N(Cc1cccn1S(=O)(=O)c1ccccc1)S(=O)(=O)c1ccc(Cl)cc1 (stereo not drawn) [Compound 206, N-(1-Benzenesulfonyl-1H-pyrrol-2-ylmethyl)-4-chloro-N-(2-oxo-azepan-3-yl)-benzenesulfonamide]
18 | 0.1 to 25 | O=C1NCCCCC1N(Cc1ccc2c(c1)OCO2)S(=O)(=O)c1ccc(Cl)cc1 (stereo not drawn) [Compound 249, N-Benzo[1,3]dioxol-5-ylmethyl-4-chloro-N-(2-oxo-azepan-3-yl)-benzenesulfonamide]
19 | 0.1 to 25 | COC(=O)c1ccc(CN([C@@H]2CCCCNC2=O)S(=O)(=O)c2ccc(Cl)cc2)cc1 [Compound 275, methyl 4-({[(4-chlorophenyl)sulfonyl][(3R)-2-oxoazepan-3-yl]amino}methyl)benzoate]
20 | 100 to 1000 | O=C(CCCc1ccccc1)Nc1ccc(CN([C@@H]2CCCCNC2=O)S(=O)(=O)c2ccc(Cl)cc2)cc1F [Compound 505, N-[4-({[(4-chlorophenyl)sulfonyl][(3R)-2-oxoazepan-3-yl]amino}methyl)-2-fluorophenyl]-4-phenylbutanamide]
21 | 0.1 to 25 | C[C@@H](NC(=O)c1ccc(CN([C@@H]2CCCCNC2=O)S(=O)(=O)c2ccc(Cl)cc2)cc1)c1ccccc1 [Compound 537, 4-({[(4-chlorophenyl)sulfonyl][(3R)-2-oxoazepan-3-yl]amino}methyl)-N-[(1R)-1-phenylethyl]benzamide]
22 | 25 to 100 | CC[C@@H](NC(=O)c1ccc(CN([C@@H]2CCCCNC2=O)S(=O)(=O)c2ccc(Cl)cc2)cc1)c1ccccc1 [Compound 553, 4-({[(4-chlorophenyl)sulfonyl][(3R)-2-oxoazepan-3-yl]amino}methyl)-N-[(1R)-1-phenylpropyl]benzamide]
23 | 100 to 1000 | O=C(NCc1ccccc1OC(F)(F)F)c1ccc(CN([C@@H]2CCCCNC2=O)S(=O)(=O)c2ccc(Cl)cc2)cc1 [Compound 579, 4-({[(4-chlorophenyl)sulfonyl][(3R)-2-oxoazepan-3-yl]amino}methyl)-N-[2-(trifluoromethoxy)benzyl]benzamide]
24 | > 1000 | O=C1NCCCC[C@H]1N(Cc1ccc(C(=O)N(Cc2cccnc2)Cc2cccnc2)cc1)S(=O)(=O)c1ccc(Cl)cc1 [Compound 613, 4-({[(4-chlorophenyl)sulfonyl][(3R)-2-oxoazepan-3-yl]amino}methyl)-N,N-bis(pyridin-3-ylmethyl)benzamide]
